From patent US20260103471A1, “CYCLIC UREA THIAZOLYL COMPOUNDS FOR TREATMENT OF HSV” (Assembly Biosciences, Inc., priority 2022, published 2026)
Read-outs that look alike come from different tables or passages of the source.

How the values were obtained:
HSV-1 = HSV-1 Antiviral Assay (Vero cells, cell viability); type: cell-based; conditions: Vero cells, 80 TCID50 HSV-1, 4 days, cell viability, read-out: HSV-1 EC50
Experimental: Vero cells were cultured in Dulbecco's Modified Eagle Medium (DMVEM) supplemented with […] and 100 units/mL penicillin and streptomycin. The cells were passaged 2-3 times per week to maintain sub-confluent densities.
Vero cells were seeded into 96-well plates at a density of 2.5×10^3 cells per well and allowed to attach overnight. Following attachment, the media was replaced with 50 μL of infection medium (DMVEM supplemented with 2% fetal bovine serum and 100 units/mL penicillin and streptomycin). A Tecan D300e digital dispenser was then used to add compounds to the culture using an 8-point 3-fold serial dilution format. The DMSO concentration was normalized to 0.5% for all treatments. Following compound addition, 50 μL of infection medium containing 80 TCID50 HSV-1 was added to the cells and incubated at 37° C. for 4 days. After the incubation, the plates were equilibrated to room temperature, the media was removed, and […] a 1:1 dilution of Cell titer glow and phosphate buffered saline was added to the cells. Following a 5-minute incubation, cell viability was quantified by measuring luminance using a Tecan Infinite M1000 Pro plate reader.

HSV-2 G strain = test: HSV-2 Antiviral Assay (Vero cells, cell viability); type: cell-based; conditions: Vero cells, 160 TCID50 HSV-2 G strain, 5 days, cell viability
Method in brief: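 Antiviral readout is survival of infected Vero cells: after 5 days at 37 °C with 160 TCID50 HSV-2 G strain plus serially diluted compound (8 points, 3-fold, 0.5% DMSO), WST-8 was added for 3 h and absorbance measured at 460/620 nm. Cells seeded at 1.0×10^4 per well.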

[1] = Human alphaherpesvirus 2, Vero, 120 h

Row | Compound | EC50 (HSV-1) | EC50 (HSV-2 G strain) | EC50 (HSV-1; Human alphaherpesvirus 1, 96 h) | EC50 (HSV-2 G strain; [1])
1 | Cc1nc(N2C[C@H](C#N)CN(c3ccc(-c4cc(F)ccc4F)cc3)C2=O)sc1S(N)(=O)=O (single isomer, unassigned) [Compound 376] | < 100 nM | < 100 nM | – | –
2 | Cc1nc(N2CCCN(c3ccc(-c4ccccn4)cc3)C2=O)sc1S(N)(=O)=O [Compound 1, 4-Methyl-2-(2-oxo-3-(4-(pyridin-2-yl)phenyl)tetrahydropyrimidin-1(2H)-yl) thiazole-5-sulfonamide] | – | – | < 100 nM | < 100 nM
3 | Cc1nc(N2CCCN(c3ccc(-c4cccnc4)cc3)C2=O)sc1S(N)(=O)=O [Compound 2] | – | – | 100 to 1000 nM | 100 to 1000 nM
4 | Cc1nc(N2CCCN(c3ccc(-c4ccncc4)cc3)C2=O)sc1S(N)(=O)=O [Compound 3] | – | – | 100 to 1000 nM | 100 to 1000 nM
5 | Cc1nc(N2CCCN(c3cccc(-c4ccccn4)c3)C2=O)sc1S(N)(=O)=O [Compound 4] | – | – | 100 to 1000 nM | 100 to 1000 nM
6 | Cc1nc(N2CCCN(c3ccc(-c4cc(F)ccc4F)cc3)C2=O)sc1S(N)(=O)=O [Compound 5] | – | – | < 100 nM | < 100 nM
7 | Cc1nc(N2CCCN(c3ccc(-c4cccc(F)c4F)cc3)C2=O)sc1S(N)(=O)=O [Compound 6] | – | – | < 100 nM | < 100 nM
8 | Cc1nc(N2CCCN(c3ccc(-c4cc(F)cc(F)c4F)cc3)C2=O)sc1S(N)(=O)=O [Compound 7] | – | – | < 100 nM | < 100 nM
9 | Cc1nc(N2CCCN(c3ccc(-c4ccccc4F)cc3)C2=O)sc1S(N)(=O)=O [Compound 8] | – | – | < 100 nM | < 100 nM
10 | Cc1nc(N2CCCN(c3ccc(-c4ccccc4Cl)cc3)C2=O)sc1S(N)(=O)=O [Compound 9] | – | – | < 100 nM | < 100 nM
11 | COc1ccccc1-c1ccc(N2CCCN(c3nc(C)c(S(N)(=O)=O)s3)C2=O)cc1 [Compound 10] | – | – | < 100 nM | < 100 nM
12 | Cc1nc(N2CCCN(c3ccc(-c4ccccc4C(F)F)cc3)C2=O)sc1S(N)(=O)=O [Compound 12] | – | – | < 100 nM | < 100 nM
13 | Cc1nc(N2CCCN(c3ccc(-c4cccc(F)c4)cc3)C2=O)sc1S(N)(=O)=O [Compound 13] | – | – | < 100 nM | < 100 nM
14 | Cc1nc(N2CCCN(c3ccc(-c4cccc(C(F)F)c4)cc3)C2=O)sc1S(N)(=O)=O [Compound 14] | – | – | < 100 nM | < 100 nM
15 | Cc1nc(N2CCCN(c3cccc(-c4cc(F)ccc4F)c3)C2=O)sc1S(N)(=O)=O [Compound 16] | – | – | 100 to 1000 nM | 100 to 1000 nM
16 | C#Cc1ccc(F)c(-c2ccc(N3CCCN(c4nc(C)c(S(N)(=O)=O)s4)C3=O)cc2)c1 [Compound 17, 2-(3-(5′-Ethynyl-2′-fluoro-[1,1′-biphenyl]-4-yl)-2-oxotetrahydropyrimidin-1(2H)-yl)-4-methylthiazole-5-sulfonamide] | – | – | < 100 nM | < 100 nM
17 | C#Cc1ccc(F)cc1-c1ccc(N2CCCN(c3nc(C)c(S(N)(=O)=O)s3)C2=O)cc1 [Compound 18] | – | – | < 100 nM | < 100 nM
18 | Cc1nc(N2CCCN(c3ccc(-c4cc(F)ccc4C4CC4)cc3)C2=O)sc1S(N)(=O)=O [Compound 22] | – | – | < 100 nM | < 100 nM
19 | Cc1nc(N2CCCN(c3ccc(-c4cc(F)ccc4C#N)cc3)C2=O)sc1S(N)(=O)=O [Compound 24] | – | – | < 100 nM | < 100 nM
20 | Cc1nc(N2CCCN(c3ccc(-c4cc(Br)ccc4F)cc3)C2=O)sc1S(N)(=O)=O [Compound 25] | – | – | < 100 nM | < 100 nM
21 | COc1ccc(F)c(-c2ccc(N3CCCN(c4nc(C)c(S(N)(=O)=O)s4)C3=O)cc2)c1 [Compound 26] | – | – | < 100 nM | < 100 nM
22 | Cc1nc(N2CCCN(c3ccc(-c4ccc(C#CC(C)(C)O)cc4)cc3)C2=O)sc1S(N)(=O)=O [Compound 28] | – | – | 1000 to 5000 nM | 1000 to 5000 nM

Row | Compound | EC50 (HSV-1) | EC50 (HSV-2 G strain) | EC50 (HSV-1; Human alphaherpesvirus 1, 96 h) | EC50 (HSV-2 G strain; [1])
23 | Cc1nc(N2CCCN(c3ccc(-c4ncccc4F)cc3)C2=O)sc1S(N)(=O)=O [Compound 35] | – | – | < 100 nM | < 100 nM
24 | Cc1nc(N2CCCN(c3ccc(-c4cc(F)ccn4)cc3)C2=O)sc1S(N)(=O)=O [Compound 36] | – | – | < 100 nM | < 100 nM
25 | Cc1nc(N2CCCN(c3ccc(-c4ccnn4C)cc3)C2=O)sc1S(N)(=O)=O [Compound 40] | – | – | 1000 to 5000 nM | 1000 to 5000 nM
26 | Cc1nc(N2CCCN(c3ccc(-c4ncco4)cc3)C2=O)sc1S(N)(=O)=O [Compound 41] | – | – | 100 to 1000 nM | 100 to 1000 nM
27 | Cc1nc(N2CCCN(c3ccc(-c4nccs4)cc3)C2=O)sc1S(N)(=O)=O [Compound 42, 4-Methyl-2-(2-oxo-3-(4-(thiazol-2-yl)phenyl)tetrahydropyrimidin-1(2H)-yl) thiazole-5-sulfonamide] | – | – | < 100 nM | < 100 nM
28 | Cc1csc(-c2ccc(N3CCCN(c4nc(C)c(S(N)(=O)=O)s4)C3=O)cc2)n1 [Compound 43] | – | – | < 100 nM | < 100 nM
29 | Cc1nc(N2CCCN(c3ccc(-c4ncc(C(F)(F)F)s4)cc3)C2=O)sc1S(N)(=O)=O [Compound 45] | – | – | 1000 to 5000 nM | 1000 to 5000 nM
30 | Cc1nc(N2CCCN(c3ccc(-c4ccc5c(cnn5C)c4)cc3)C2=O)sc1S(N)(=O)=O [Compound 52] | – | – | 1000 to 5000 nM | 1000 to 5000 nM
31 | Cc1nc(N2CCCN(c3ccc(-c4cccc5cn[nH]c45)cc3)C2=O)sc1S(N)(=O)=O [Compound 54] | – | – | 100 to 1000 nM | 100 to 1000 nM
32 | Cc1nc(N2CCCN(c3ccc(-c4cccc5c4cnn5C)cc3)C2=O)sc1S(N)(=O)=O [Compound 55] | – | – | < 100 nM | < 100 nM
33 | Cc1nc(N2CCCN(c3ccc(-c4cccc5c4cnn5C(C)C)cc3)C2=O)sc1S(N)(=O)=O [Compound 56] | – | – | 100 to 1000 nM | 100 to 1000 nM
34 | Cc1nc(N2CCCN(c3ccc(-c4cccc5nn(C(C)C)cc45)cc3)C2=O)sc1S(N)(=O)=O [Compound 59] | – | – | 1000 to 5000 nM | 1000 to 5000 nM
35 | Cc1nc(N2CCCN(c3ccc(-c4cccc5c4cnn5CC(C)(C)O)cc3)C2=O)sc1S(N)(=O)=O [Compound 60] | – | – | 1000 to 5000 nM | 1000 to 5000 nM
36 | Cc1nc(N2CCCN(c3ccc(-c4cccc5ncsc45)cc3)C2=O)sc1S(N)(=O)=O [Compound 67, 2-(3-(4-(Benzo[d]thiazol-7-yl)phenyl)-2-oxotetrahydropyrimidin-1(2H)-yl)-4-methylthiazole-5-sulfonamide] | – | – | < 100 nM | < 100 nM
37 | Cc1nc2cccc(-c3ccc(N4CCCN(c5nc(C)c(S(N)(=O)=O)s5)C4=O)cc3)c2s1 [Compound 68] | – | – | < 100 nM | < 100 nM
38 | Cc1cc2cccc(-c3ccc(N4CCCN(c5nc(C)c(S(N)(=O)=O)s5)C4=O)cc3)c2s1 [Compound 73] | – | – | < 100 nM | < 100 nM
39 | Cc1nc(N2CCCN(c3ccc(-c4cccc5[nH]cnc45)cc3)C2=O)sc1S(N)(=O)=O [Compound 74] | – | – | 100 to 1000 nM | 100 to 1000 nM
40 | Cc1nc(N2CCCN(c3ccc(-c4ccc5ncn(C)c5c4)cc3)C2=O)sc1S(N)(=O)=O [Compound 75] | – | – | 1000 to 5000 nM | 1000 to 5000 nM
41 | Cc1nc(N2CCCN(c3ccc(-c4cccc5c4CC(=O)N5C)cc3)C2=O)sc1S(N)(=O)=O [Compound 77] | – | – | 100 to 1000 nM | 100 to 1000 nM
42 | Cc1nc(N2CCCN(c3ccc(-c4cccc5[nH]c(=O)sc45)cc3)C2=O)sc1S(N)(=O)=O [Compound 78] | – | – | 100 to 1000 nM | 100 to 1000 nM
43 | Cc1nc(N2CCCN(c3ccc(-c4cccc5c4sc(=O)n5C)cc3)C2=O)sc1S(N)(=O)=O [Compound 79] | – | – | < 100 nM | < 100 nM
